Read-outs that look alike come from different tables or passages of the source.
Assays:
[1] = test system: HIV-1LAI; assay: Antiviral MTT assay, MT-2 cells exposed to HIV-1LAI; format: cell-based; conditions: Human immunodeficiency virus 1, MT2
Description: As shown in Scheme 4, alcohols 14, 15, 20, and 21 were activated with p-nitrophenyl chloroformate to provide mixed activated carbonates 21a-d. These carbonates were reacted with amine 22 to afford HIV-1 protease inhibitors 23a-d. These inhibitors were evaluated for their activity in both enzyme inhibitory and antiviral assays. The enzyme inhibitory activity (Ki) was determined according to an assay protocol reported by Toth and Marshall (Toth, M. V.; Marshall, G. R. Int. J. Pep. Protein Res. 1990, 36, 544-550). […] Antiviral IC50 values were determined using the MTT assay (Koh, Y., et al., Antimicrob. Agents Chemother. 2003, 47, 3123-3129.).

[2] = target: HIV-1 protease (Human immunodeficiency virus type 1 group M subtype B (isolate HXB2) (HIV-1), UniProt P04585); assay: biochemical; conditions: enzymatic inhibitory activity

IC50 ([1]; Human T-lymphoid (MT-2) cells exposed to 100 TCID50 of HIV-1LAI, MTT assay, means of at least three experiments, read-out: IC50) [nM] | Compound | IC50 [1] [nM] | Ki [2] [nM]
– | COc1ccc(S(=O)(=O)N(CC(C)C)C[C@@H](O)[C@H](Cc2ccccc2)NC(=O)O[C@H]2CO[C@H]3OC[C@@H](OC)[C@H]32)cc1 [Compound 23a, (3R,3aS,4S,6aR)-4-methoxyhexahydrofuro[2,3-b]furan-3-yl-(2S,3R)-3-hydroxy-4-(N-isobutyl-4-methoxyphenylsulfonamido)-1-phenylbutan-2-ylcarbamate] | 56 | 0.035
– | COc1ccc(S(=O)(=O)N(CC(C)C)C[C@@H](O)[C@H](Cc2ccccc2)NC(=O)O[C@H]2CO[C@H]3OC[C@@H](OCc4ccccc4)[C@H]32)cc1 [Compound 23b, (3R,3aS,4S,6aR)-4-(benzyloxy)hexahydrofuro[2,3-b]furan-3-yl-(2S,3R)-3-hydroxy-4-(N-isobutyl-4-methoxyphenylsulfonamido)-1-phenylbutan-2-ylcarbamate] | 335 | 0.073
– | COc1ccc(S(=O)(=O)N(CC(C)C)C[C@@H](O)[C@H](Cc2ccccc2)NC(=O)O[C@H]2CO[C@H]3OC[C@H](OC)[C@H]32)cc1 [Compound 23c, (3R,3aS,4R,6aR)-4-methoxyhexahydrofuro[2,3-b]furan-3-yl-(2S,3R)-3-hydroxy-4-(N-isobutyl-4-methoxyphenylsulfonamido)-1-phenylbutan-2-ylcarbamate] | 2.4 | 0.0029
– | COc1ccc(S(=O)(=O)N(CC(C)C)C[C@@H](O)[C@H](Cc2ccccc2)NC(=O)O[C@H]2CO[C@H]3OC[C@H](OCc4ccccc4)[C@H]32)cc1 [Compound 23d, (3R,3aS,4R,6aR)-4-(benzyloxy)hexahydrofuro[2,3-b]furan-3-yl-(2S,3R)-3-hydroxy-4-(N-isobutyl-4-methoxyphenylsulfonamido)-1-phenylbutan-2-ylcarbamate] | – | 0.3
1.4 | COc1ccc(S(=O)(=O)N(CC(C)C)C[C@@H](O)[C@H](Cc2ccccc2)NC(=O)O[C@H]2CO[C@H]3OCC[C@H]32)cc1 [Entry 1, reference compound] | – | –
